24 molecules from ChEMBL document CHEMBL1140732, “2-(3-aryl-3-oxopropen-1-yl)-9-tert-butyl-paullones: a new antileishmanial chemotype” (J Med Chem, 2008) can be followed below.

Where only a bound is given, the exact number is not on record here.

The subject of data set [1] is Leishmania donovani. Kind of data set: microbe, parasite or virus in culture. The class given is functional. To be noted: 1S-C12d.
Description: Antileishmanial activity against Leishmania donovani MHOM/SD/1962/1S-C12d axenic amastigotes by alamar blue viability assay
The test system of data set [2] is Leishmania donovani. Kind of data set: microbe, parasite or virus in culture. To be noted: 1S-C12d. The data set is classed as functional. This is another data set of the same source.
Description: Antileishmanial activity against Leishmania donovani MHOM/SD/1962/1S-C12d axenic amastigotes at 15 uM by alamar blue viability assay
The test system of data set [3] is Leishmania donovani. Kind of data set: microbe, parasite or virus in culture. The data set is classed as functional. To be noted: 1S-C12d, THP-1.
Description: Growth inhibition of Leishmania donovani MHOM/SD/1962/1S-C12d axenic amastigotes in infected THP1 macrophages at 5 uM by alamar blue viability assay
In data set [4] the test system is THP-1. The data set is described as follows: Toxicity against human THP1 cells at 5 uM by alamar blue viability assay. As to conditions: thp-1, 5 µM.
Data set [5] relates to Leishmania donovani. Kind of data set: Growth inhibition of Leishmania donovani MHOM/SD/1962/1S-C12d […] amastigotes in infected THP1 macrophages at 1 uM by alamar blue viability assay. The data set is classed as functional. To be noted: THP-1.
Data set [6] deals with THP-1. Kind of data set: Toxicity against human THP1 cells at 1 uM by alamar blue viability assay. As to conditions: thp-1, 1 µM. The class given is cell-based.
A short description of data set [7]: Inhibition of fumarate reductase in permeabilized Leishmania major promastigotes.
Data set [8] is described as follows: Inhibition of fumarate reductase in crude mitochondria fraction of Leishmania major promastigotes.
The test system of data set [9] is Leishmania donovani. Kind of data set: Inhibition of Leishmania donovani infection in mouse macrophages. The data set is classed as functional. As to conditions: read-out: ED50 (the source's name).
A short description of data set [10]: Toxicity against mouse macrophages at 10 uM. To be noted: macrophage. The data set is classed as cell-based.

The term GI50 denotes the concentration giving 50% growth inhibition. Low values mean more potent growth inhibition, high ones less potent growth inhibition. As usually defined, the inhibition is the drop in the measured response relative to a control, in per cent. Low values mean a response near the control, high ones a response far below the control. In data set [1], `CC(=O)/C=C/c1ccc2c(c1)-c1[nH]c3ccc(C)cc3c1CC(=O)N2` had a GI50 of 12000 nM. The molecule also yielded an inhibition at 15 µM in data set [2] of 65.2%. This molecule also registered an inhibition at 5 µM in data set [3] of 0%. Also, in [4], the Activity worked out at 0%.

As to `CC(=O)/C=C/c1ccc2c(c1)-c1[nH]c3ccc(C#N)cc3c1CC(=O)N2`, the inhibition at 15 µM in [2] worked out at 9.8%. The molecule further came in with an inhibition at 5 µM in [3] of 0%. The Activity in data set [4] came out at 48%.

In [1], `CC(=O)/C=C/c1ccc2c(c1)-c1[nH]c3ccc(C(C)(C)C)cc3c1CC(=O)N2` displayed a GI50 of 2800 nM. 15 µM produced 99% inhibition in data set [2]. This molecule also came in with an inhibition at 5 µM in data set [3] of 56.2%. In addition, the Activity in data set [4] came to 62%.

Molecule `O=C1Cc2c([nH]c3ccccc23)-c2cc(/C=C/C(=O)c3ccccc3)ccc2N1` came in with a GI50 in [1] of 5000 nM. Moreover, at 15 µM the inhibition in data set [2] was 99.6%. This molecule gave an inhibition at 5 µM in [3] of 0%. The Activity in data set [4] is reported as 0%.

For `Cc1ccc2[nH]c3c(c2c1)CC(=O)Nc1ccc(/C=C/C(=O)c2ccc(Cl)cc2)cc1-3`, at 15 µM the inhibition in [2] was 17.4%. Besides, at 5 µM the inhibition in data set [3] was 0%. In addition, the Activity in [4] came to 0%.

`CC(C)(C)c1ccc2[nH]c3c(c2c1)CC(=O)Nc1ccc(/C=C/C(=O)c2ccccc2)cc1-3`: the concentration for 50% growth inhibition (GI50) in data set [1] is 1100 nM. The molecule further yielded an inhibition at 15 µM in data set [2] of 99%. Also, in [3], 5 µM produced 61.8% inhibition. The same molecule gave an Activity in data set [4] of 0%.

Consider `COc1ccc(C(=O)/C=C/c2ccc3c(c2)-c2[nH]c4ccc(C(C)(C)C)cc4c2CC(=O)N3)cc1`, for which the GI50 in data set [1] was found to be 1200 nM. The same molecule yielded an inhibition at 15 µM in [2] of 97.5%. This molecule showed an inhibition at 5 µM in data set [3] of 71.7%. Also, the Activity in [4] is given as 0%.

With `CC(C)(C)c1ccc2[nH]c3c(c2c1)CC(=O)Nc1ccc(/C=C/C(=O)c2ccc(Cl)cc2)cc1-3`, in [1], it took 1200 nM to inhibit growth by half (GI50). In addition, the inhibition at 15 µM in [2] came out at 98.3%. In [3], at 5 µM the inhibition was 76.8%. In [4], this molecule had an Activity of 0%.

In [1], `CC(C)(C)c1ccc2[nH]c3c(c2c1)CC(=O)Nc1ccc(/C=C/C(=O)c2ccco2)cc1-3` came in with a GI50 of 760 nM. For the same molecule, the inhibition at 15 µM in [2] was 97.6%. The molecule further registered an inhibition at 5 µM in [3] of 76.2%. The same molecule returned an Activity in data set [4] of 3.3%.

`CC(C)(C)c1ccc2[nH]c3c(c2c1)CC(=O)Nc1ccc(/C=C/C(=O)c2cccnc2)cc1-3` displayed a GI50 in [1] of 780 nM. The inhibition at 15 µM in data set [2] was 98.1%. In data set [3], this molecule yielded an inhibition at 5 µM of 76.2%. The molecule also displayed an Activity in data set [4] of 0%.

`COc1cc(C(=O)/C=C/c2ccc3c(c2)-c2[nH]c4ccc(C(C)(C)C)cc4c2CC(=O)N3)cc(OC)c1OC` registered a GI50 in [1] of 1100 nM. The molecule also showed an inhibition at 15 µM in data set [2] of 96.8%. The same molecule had an inhibition at 5 µM in data set [3] of 99.2%. Also, the Activity in data set [4] came out at 92.7%.

In data set [1], `COc1ccc(OC)c(C(=O)/C=C/c2ccc3c(c2)-c2[nH]c4ccc(C(C)(C)C)cc4c2CC(=O)N3)c1` registered a GI50 of 1100 nM. For the same molecule, at 15 µM the inhibition in [2] was 96.8%. Testing at 5 µM in data set [3] gave an inhibition of 93.8%. The Activity in data set [4] is listed as 95.7%.

For the molecule `COc1ccc(C(=O)/C=C/c2ccc3c(c2)-c2[nH]c4ccc(C(C)(C)C)cc4c2CC(=O)N3)c(OC)c1`, it took 840 nM to inhibit growth in data set [1] by half (GI50). In [2], the inhibition at 15 µM stood at 93.6%. The inhibition at 5 µM in [3] amounted to 85.6%. Also, the Activity in [4] stood at 0%.

As for `COc1ccc(C(=O)/C=C/c2ccc3c(c2)-c2[nH]c4ccc(C(C)(C)C)cc4c2CC(=O)N3)cc1OC`, in [1], the GI50 worked out at 1000 nM. Further, in [2], the inhibition at 15 µM turned out to be 95.5%. Moreover, in [3], at 5 µM the inhibition was 86%. This molecule showed an Activity in data set [4] of 49.7%.

With `CC(=O)/C=C/c1ccc2c(c1)-c1[nH]c3ccccc3c1CC(=O)N2`, in data set [1], the GI50 amounted to 3400 nM. In data set [2], the inhibition at 15 µM stood at 98.7%. Moreover, in data set [3], the inhibition at 5 µM worked out at 11.4%. Further, the Activity in data set [4] amounted to 0%.

In the case of `CC(=O)/C=C/c1ccc2c(c1)-c1[nH]c3ccc(F)cc3c1CC(=O)N2`, in [2], the inhibition at 15 µM worked out at 45.4%. In addition, at 5 µM the inhibition in [3] was 0%. Also, in data set [4], the Activity is reported as 0%.

For `CC(C)(C)c1ccc2[nH]c3c(c2c1)CC(=O)Nc1ccc(/C=C/C(=O)c2cccs2)cc1-3`, the GI50 in data set [1] was 1000 nM. In data set [2], this molecule displayed an inhibition at 15 µM of 98.8%. Moreover, the inhibition at 5 µM in data set [3] was 79.3%. The Activity in [4] is given as 60.5%.

In the case of `CC(C)(C)c1ccc2[nH]c3c(c2c1)CC(=O)Nc1ccc(/C=C/C(=O)c2ccc(O)cc2)cc1-3`, the GI50 in data set [1] is 3000 nM. Moreover, the inhibition at 15 µM in data set [2] was 97.2%. In addition, the inhibition at 5 µM in data set [3] came to 54.8%. Moreover, the Activity in data set [4] amounted to 80.3%.

As to `CC(C)(C)c1ccc2[nH]c3c(c2c1)CC(=O)Nc1ccc(/C=C/C#N)cc1-3`, in [1], the GI50 amounted to 3600 nM. Moreover, at 15 µM the inhibition in data set [2] was 63.8%. Besides, 5 µM produced 47.3% inhibition in data set [3]. In addition, in [4], the Activity turned out to be 0%.

Take `CC(C)(C)c1ccc2[nH]c3c(c2c1)CC(=O)Nc1ccc(C#Cc2ccccc2)cc1-3`: in [1], it took 860 nM to inhibit growth by half (GI50). Also, in data set [2], the inhibition at 15 µM stood at 79.6%. In addition, the inhibition at 5 µM in [3] came to 72%. The molecule further showed an Activity in data set [4] of 9%.

`COc1ccc(C(=O)/C=C/c2ccc(NC(C)=O)cc2)cc1` displayed an inhibition at 15 µM in data set [2] of 69.6%.

As for `C[C@@H]1[C@H](O)[C@@H](C)/C=C/C=C/C=C/C=C/C=C/C=C/C=C/[C@H](O[C@@H]2O[C@H](C)[C@@H](O)[C@H](N)[C@@H]2O)C[C@@H]2O[C@](O)(C[C@@H](O)C[C@@H](O)[C@H](O)CC[C@@H](O)C[C@@H](O)CC(=O)O[C@H]1C)C[C@H](O)[C@H]2C(=O)O` (stereo in doubt) [AMPHOTERICIN B], the inhibition at 1 µM in data set [5] was greater than 90%. In [6], this molecule displayed an Activity greater than 90%.

Usually IC50 stands for the concentration that gives 50% inhibition. The low end stands for greater potency, the high end for weaker potency. `C=CC(C)(C)c1cc(/C=C/C(=O)c2ccc(O)cc2)c(OC)cc1O` [LICOAGROCHACONE A]: the IC50 in data set [7] amounted to 1200 nM; in data set [8] it was 1400 nM.

Consider `N#Cc1ccc2[nH]c3c(c2c1)CC(=O)Nc1ccccc1-3` [PAULLONE 2], for which the EC50 in data set [9] is 19600 nM. In addition, the Activity entry in data set [10] is recorded as “Toxic”.
